Patent publication US11306078B2, “Piperidine CXCR7 receptor modulators” (IDORSIA PHARMACEUTICALS LTD., priority 2016, dated 2022)

Biological target: human chemokine receptor CXCR7 (Homo sapiens (Human), UniProt P25106)
Test: Tango CXCR7-bla U2OS beta-arrestin recruitment assay (beta-lactamase reporter, FRET), antagonism of CXCL12/SDF1-α;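 also: compounds preincubated 15 min before CXCL12 addition, then 22 h at 37 °C, FRET emission ratio read with CCF4-AM substrate after 2 h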
Format: cell-based
Details: antagonistic effect on CXCR7; Tango CXCR7-bla U2OS cells, CXCL12/SDF1-α at its EC80

human chemokine receptor CXCR7, sequence (P25106 whole entry): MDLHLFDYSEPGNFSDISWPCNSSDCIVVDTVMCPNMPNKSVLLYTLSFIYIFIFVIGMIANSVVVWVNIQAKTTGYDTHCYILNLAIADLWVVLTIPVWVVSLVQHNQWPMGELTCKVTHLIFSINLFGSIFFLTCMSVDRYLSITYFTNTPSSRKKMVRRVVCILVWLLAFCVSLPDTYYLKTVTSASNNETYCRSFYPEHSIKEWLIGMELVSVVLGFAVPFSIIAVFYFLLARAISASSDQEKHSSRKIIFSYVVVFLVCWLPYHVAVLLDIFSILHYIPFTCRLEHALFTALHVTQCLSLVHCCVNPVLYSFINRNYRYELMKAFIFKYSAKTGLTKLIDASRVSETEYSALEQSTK

Cc1ccccc1CCNC(=O)[C@@H]1CN(C2CCCCC2)CC[C@H]1NC(=O)c1cc(-c2ccc(F)cc2F)on1 (racemic) [Example 1.056, rac-(3R*,4R*)-1-Cyclohexyl-4-{[5-(2,4-difluoro-phenyl)-isoxazole-3-carbonyl]-amino}-piperidine-3-carboxylic acid (2-o-tolyl-ethyl)-amide]
IC50: 4 nM

COc1ccccc1CCNC(=O)[C@@H]1CN(C2CCCCC2)CC[C@H]1NC(=O)c1cc(-c2ccc(F)cc2F)on1 (racemic) [Example 1.057, rac-(3R*,4R*)-1-Cyclohexyl-4-{[5-(2,4-difluoro-phenyl)-isoxazole-3-carbonyl]-amino}-piperidine-3-carboxylic acid [2-(2-methoxy-phenyl)-ethyl]-amide]
IC50: 1 nM

O=C(N[C@@H]1CCN(C2CCCCC2)C[C@H]1C(=O)NCCc1ccccc1Cl)c1cc(-c2ccc(F)cc2F)on1 (racemic) [Example 1.058, rac-(3R*,4R*)-1-Cyclohexyl-4-{[5-(2,4-difluoro-phenyl)-isoxazole-3-carbonyl]-amino}-piperidine-3-carboxylic acid [2-(2-chloro-phenyl)-ethyl]-amide]
IC50: 1 nM

O=C(N[C@@H]1CCN(C2CCCCC2)C[C@H]1C(=O)NCCc1ccc(F)cc1)c1cc(-c2ccc(F)cc2F)on1 (racemic) [Example 1.059, rac-(3R*,4R*)-1-Cyclohexyl-4-{[5-(2,4-difluoro-phenyl)-isoxazole-3-carbonyl]-amino}-piperidine-3-carboxylic acid [2-(4-fluoro-phenyl)-ethyl]-amide]
IC50: 140 nM

Cc1ccc(CCNC(=O)[C@@H]2CN(C3CCCCC3)CC[C@H]2NC(=O)c2cc(-c3ccc(F)cc3F)on2)cc1 (racemic) [Example 1.062, rac-(3R*,4R*)-1-Cyclohexyl-4-{[5-(2,4-difluoro-phenyl)-isoxazole-3-carbonyl]-amino}-piperidine-3-carboxylic acid (2-p-tolyl-ethyl)-amide]
IC50: 16 nM

Cc1nc(NC(=O)[C@@H]2CN(C3CCCCC3)CC[C@H]2NC(=O)c2cc(-c3ccc(F)cc3F)on2)sc1C (racemic) [Example 1.065, rac-(3R*,4R*)-1-Cyclohexyl-4-{[5-(2,4-difluoro-phenyl)-isoxazole-3-carbonyl]-amino}-piperidine-3-carboxylic acid (4,5-dimethyl-thiazol-2-yl)-amide]
IC50: 567 nM

Cc1cccc(CCNC(=O)[C@@H]2CN(C3CCCCC3)CC[C@H]2NC(=O)c2cc(-c3ccc(F)cc3F)on2)c1 (racemic) [Example 1.066, rac-(3R*,4R*)-1-Cyclohexyl-4-{[5-(2,4-difluoro-phenyl)-isoxazole-3-carbonyl]-amino}-piperidine-3-carboxylic acid (2-m-tolyl-ethyl)-amide]
IC50: 16 nM

O=C(N[C@@H]1CCN(C2CCCCC2)C[C@H]1C(=O)Nc1cccnc1)c1cc(-c2ccc(F)cc2F)on1 (racemic) [Example 1.067, rac-(3R*,4R*)-1-Cyclohexyl-4-{[5-(2,4-difluoro-phenyl)-isoxazole-3-carbonyl]-amino}-piperidine-3-carboxylic acid pyridin-3-ylamide]
IC50: 319 nM

Cc1csc(CNC(=O)[C@@H]2CN(C3CCCCC3)CC[C@H]2NC(=O)c2cc(-c3ccc(F)cc3F)on2)n1 (racemic) [Example 1.068, rac-(3R*,4R*)-1-Cyclohexyl-4-{[5-(2,4-difluoro-phenyl)-isoxazole-3-carbonyl]-amino}-piperidine-3-carboxylic acid (4-methyl-thiazol-2-ylmethyl)-amide]
IC50: 512 nM

CN(CCc1ccccn1)C(=O)[C@@H]1CN(C2CCCCC2)CC[C@H]1NC(=O)c1cc(-c2ccc(F)cc2F)on1 (racemic) [Example 1.075, rac-(3R*,4R*)-1-Cyclohexyl-4-{[5-(2,4-difluoro-phenyl)-isoxazole-3-carbonyl]-amino}-piperidine-3-carboxylic acid methyl-(2-pyridin-2-yl-ethyl)-amide]
IC50: 44 nM
